Our source for the Activity and MIC values is ChEMBL document CHEMBL1165957, “Alkaloids from the bark of Guatteria hispida and their evaluation as antioxidant and antimicrobial agents” (2010).

Assay type in all cases: functional
Experiment [1] is described as follows: Antioxidant activity assessed as trolox equivalents of peroxyl radical scavenging activity by ORAC assay. Further details: unit not given here.
Experiment [2] relates to Candida dubliniensis. Nature of the experiment: Antimicrobial activity against Candida dubliniensis ATCC 777 by broth dilution method.
Experiment [3] deals with Candida albicans. The experiment is described as follows: Antimicrobial activity against Candida albicans ATCC 10231 by broth dilution method.
Experiment [4] has as its system Kocuria rhizophila. Nature of the experiment: Antimicrobial activity against Kocuria rhizophila ATCC 9341 by broth dilution method.
The test system of experiment [5] is Candida tropicalis. The experiment is described as follows: Antimicrobial activity against Candida tropicalis CT by broth dilution method.
The test system of experiment [6] is Candida dubliniensis. The experiment is described as follows: Antimicrobial activity against Candida dubliniensis ATCC 778157 by broth dilution method. (In general: In broth dilution the organism is exposed to a series of concentrations in liquid medium.)
Experiment [7] has as its system Candida parapsilosis. Nature of the experiment: Antimicrobial activity against Candida parapsilosis ATCC 22019 by broth dilution method.
Experiment [8] concerns Nakaseomyces glabratus. Nature of the experiment: Antimicrobial activity against Candida glabrata ATCC 30070 by broth dilution method.
The test system of experiment [9] is Staphylococcus aureus. The experiment is described as follows: Antimicrobial activity against Staphylococcus aureus 8- penicillinase negative by broth dilution method.
Experiment [10] deals with Escherichia coli. Nature of the experiment: Antimicrobial activity against Escherichia coli ATCC 10538 by broth dilution method.
In experiment [11] the test system is Pseudomonas aeruginosa. The experiment is described as follows: Antimicrobial activity against Pseudomonas aeruginosa ATCC 27853 by broth dilution method.
Experiment [12] has as its system Staphylococcus aureus. Nature of the experiment: Antimicrobial activity against Staphylococcus aureus 7+ penicillinase positive + by broth dilution method.
Experiment [13] relates to Staphylococcus epidermidis. The experiment is described as follows: Antimicrobial activity against Staphylococcus epidermidis 6ep by broth dilution method.
The subject of experiment [14] is Staphylococcus aureus. The experiment is described as follows: Antimicrobial activity against Staphylococcus aureus ATCC 14458 by broth dilution method.

≈ marks a conversion by molar mass, not a printed value. Calls of active or inactive are those of the source.

`O=c1c(O)c(-c2ccc(O)c(O)c2)oc2cc(O)cc(O)c12`: the Activity in experiment [1] turned out to be 5.62.
Broadly, the MIC is the smallest concentration in the dilution series that meets the test's criterion for growth inhibition. On to `O=C1c2ccccc2-c2c3c(cc4ccnc1c24)OCO3` [LIRIODENINE], for which the values for the MIC in experiment [2], in experiment [6] and in experiment [13] were 50 µg/mL (≈ 182 µM), 100 µg/mL (≈ 363 µM) and 50 µg/mL (≈ 182 µM), respectively. In addition, the MIC entry in experiment [3], in experiment [4], in experiment [5], in experiment [7], in [8] and in experiment [9] was “inactive” in each case. For the same compound, the MIC entry in experiment [10], in [11], in experiment [12] and in experiment [14] was “inactive” in each case. The Activity in [1] came to 0.3.
For `COc1cc2c(cc1O)C[C@H]1c3cc(O)c(OC)cc3CCN1C2`, the Activity in [1] is 1.4.
For `COc1cc2ccnc3c2c(c1OC)-c1ccccc1C3=O` [LYSICAMINE], the minimal inhibitory concentration (MIC) in experiment [2] turned out to be 100 µg/mL (≈ 343 µM); in experiment [6], 100 µg/mL (≈ 343 µM); in [13] it was 50 µg/mL (≈ 172 µM). Besides, the MIC entry in [3], in [4], in [5], in [7], in experiment [8] and in experiment [9] was “inactive” each time. Moreover, the MIC result in experiment [10], in [11], in [12] and in [14] was “inactive” throughout. Further, the Activity in [1] turned out to be 0.86.
As to `COc1c(OC)c2c3c(nccc3c1OC)C(=O)c1ccccc1-2` [HOMOMOSCHATOLINE], the minimum inhibitory concentration (MIC) in [2] amounted to 12.5 µg/mL (≈ 38.9 µM); in experiment [6], 25 µg/mL (≈ 77.8 µM); in experiment [13] it was 25 µg/mL (≈ 77.8 µM). In addition, the MIC entry in experiment [3], in experiment [4], in [5], in experiment [7], in experiment [8] and in [9] was “inactive” each time. For the same compound, the MIC result in [10], in experiment [11], in experiment [12] and in [14] was “inactive” throughout. In addition, in experiment [1], the Activity was determined as 0.5.
With `O=c1c(O[C@@H]2O[C@H](CO)[C@@H](O)[C@H](O)[C@H]2O)c(-c2ccc(O)c(O)c2)oc2cc(O)cc(O)c12`, the Activity in [1] came to 5.25.
On the same count and under the same terms, the value for `O=C(O)/C=C/c1ccc(O)c(O)c1` was 2.95.
On to `CC(=O)N1CCN(c2ccc(OCC3COC(Cn4ccnc4)(c4ccc(Cl)cc4Cl)O3)cc2)CC1` (configuration not stated) [KETOCONAZOLE], for which the minimal inhibitory concentration (MIC) in experiment [2], in [3], in [5], in experiment [6], in [7] (Lodderomyces parapsilosis) and in experiment [8] was 12.5 µg/mL (≈ 23.5 µM) in each case.
`COc1cc2c(cc1O)C[C@H]1c3cc(OC)c(O)cc3CCN1C2`: in [1], the Activity is 1.67.
Turning to `COc1ccc2c(c1)C(=O)c1nccc3c(O)c(OC)c(OC)c-2c13`, the Activity in experiment [1] came out at 1.62.
Take `O=C(N[C@H](CO)[C@H](O)c1ccc([N+](=O)[O-])cc1)C(Cl)Cl` [CHLORAMPHENICOL]: the MIC came to 50 µg/mL (≈ 155 µM) in [4]; 25 µg/mL (≈ 77.4 µM) in [9]; 50 µg/mL (≈ 155 µM) in experiment [10]; 850 µg/mL (≈ 2630 µM) in [11]; 25 µg/mL in experiment [12]; 50 µg/mL (≈ 155 µM) in experiment [13]. In experiment [14], this compound yielded an MIC of 25 µg/mL (≈ 77.4 µM).
Turning to `COc1cc2c3c(c1OC)-c1ccccc1CC3NCC2` (configuration not stated), in experiment [1], the Activity was found to be 0.27.
